Assay results from patent US20070128217A1 (priority 2003, published 2007).

How the values were obtained:
[1] = system: control sera (pooled serum of ten healthy LUMC hospital workers; commercial negative donor pooled serum from the Dutch bloodbank); type: binding, human; design: Binding of Control serum LUMC to linear peptides / Binding of Control serum Blood-bank to linear peptides / Binding of Control serum LUMC to looped peptides / Binding of Control Serum Blood-Bank to Looped peptides / Binding of Control serum LUMC to linear peptides of the protein M of SARS-CoV Urbani / Binding of Control serum Blood-bank to linear peptides of the protein M of SARS-CoV Urbani / Binding of Control serum LUMC to looped peptides of the protein M of SARS-CoV Urbani / Binding of Control Serum Blood-Bank to Looped peptides of the protein M of SARS-CoV Urbani: unit not given here
[2] = system: rabbit serum obtained by immunizing a rabbit with the SARS-CoV strain Frankfurt 1; type: binding; design: Binding of a rabbit serum to linear peptides / Binding of a rabbit serum to looped peptides / Rabbit serum linear peptides / Rabbit serum looped peptides / Binding of a rabbit serum to linear peptides of protein N of SARS-CoV Urbani (Rabbit serum linear peptides) / Binding of a rabbit serum to looped/cyclic peptides of protein N of SARS-CoV Urbani (Rabbit serum looped peptides): unit not given here
[3] = system: antibodies in sera from SARS patients (sera 1a, 1b, 2, 6, 37, 62, London, SARS-yellow, SARS-green); type: binding, human; design: Binding of serum 6 to linear peptides of protein X1 of SARS-CoV Urbani / Binding of serum 37 to linear peptides of protein X1 of SARS-CoV Urbani / Binding of serum 6 to looped/cyclic peptide (PEPSCAN-ELISA) / Binding of serum 37 to looped/cyclic peptide (PEPSCAN-ELISA) / Binding of serum 37 to looped/cyclic peptides of protein X1 of SARS-CoV Urbani / Binding of serum 6 to linear peptides of protein X2 / Binding of serum 37 to linear peptides of protein X2 / Binding of serum 37 to looped/cyclic peptides of protein X2 of SARS-CoV Urbani / Binding of serum 6 to linear peptides of protein M of SARS-CoV Urbani / Binding of serum 37 to linear peptides of protein M of SARS-CoV Urbani / Binding of serum 6 to looped/cyclic peptides of protein M of SARS-CoV Urbani / Binding of serum 37 to looped/cyclic peptides of protein M of SARS-CoV Urbani / Binding of serum 6 to linear peptides of protein X3 of SARS-CoV Urbani / Binding of serum 37 to linear peptides of protein X3 of SARS-CoV Urbani / Binding of serum 37 to looped/cyclic peptides of protein X3 of SARS-CoV Urbani / Binding of serum 6 to linear peptides of protein X4 of SARS-CoV Urbani / Binding of serum 37 to linear peptides of protein X4 of SARS-CoV Urbani / Binding of serum 37 to looped/cyclic peptides of protein X4 of SARS-CoV Urbani / Binding of serum 6 to linear peptides of protein X5 of SARS-CoV Urbani / Binding of serum 37 to linear peptides of protein X5 of SARS-CoV Urbani / Binding of serum 37 to looped/cyclic peptides of protein X5 of SARS-CoV Urbani / Binding of serum 6 to linear peptides of protein N of SARS-CoV Urbani / Binding of serum 37 to linear peptides of protein N of SARS-CoV Urbani / Binding of serum 6 to linear peptide (PEPSCAN-ELISA) / Binding of serum 1a to looped/cyclic peptides of protein N of SARS-CoV Urbani / Binding of serum 1b to looped/cyclic peptides of protein N of SARS-CoV Urbani / Binding of serum 2 to looped/cyclic peptides of protein N of SARS-CoV Urbani / Binding of serum 6 to looped/cyclic peptides of protein N of SARS-CoV Urbani / Binding of serum 37 to looped/cyclic peptides of protein N of SARS-CoV Urbani / Binding of serum 62 to looped/cyclic peptides of protein N of SARS-CoV Urbani / Binding of serum London to looped/cyclic peptides of protein N of SARS-CoV Urbani / Binding of serum SARS-green to looped/cyclic peptides of protein N of SARS-CoV Urbani: unit not given here

## CFVLAAVYRINWVTG
[1]
  Binding of Control Serum Blood-Bank to Looped peptides of the protein M of SARS-CoV Urbani: 0.6
  Binding of Control serum Blood-bank to linear peptides of the protein M of SARS-CoV Urbani: 0.7
  Binding of Control serum LUMC to linear peptides of the protein M of SARS-CoV Urbani: 0.6
  Binding of Control serum LUMC to looped peptides of the protein M of SARS-CoV Urbani: 0.8
[2]
  Rabbit serum linear peptides: 0.2
  Rabbit serum looped peptides: 0.1
[3]
  Binding of serum 1a to linear peptides of protein M of SARS-CoV Urbani: 0.8
  Binding of serum 1a to looped/cyclic peptides of protein M of SARS-CoV Urbani: 0.6
  Binding of serum 1b to linear peptides of protein M of SARS-CoV Urbani: 0.6
  Binding of serum 1b to looped/cyclic peptides of protein M of SARS-CoV Urbani: 0.6
  Binding of serum 2 to linear peptides of protein M of SARS-CoV Urbani: 0.6
  Binding of serum 2 to looped/cyclic peptides of protein M of SARS-CoV Urbani: 0.5
  Binding of serum 6 to linear peptides of protein M of SARS-CoV Urbani: 0.6
  Binding of serum 6 to looped/cyclic peptides of protein M of SARS-CoV Urbani: 0.8
  Binding of serum 37 to linear peptides of protein M of SARS-CoV Urbani: 0.4
  Binding of serum 37 to looped/cyclic peptides of protein M of SARS-CoV Urbani: 0.6
  Binding of serum 62 to linear peptides of protein M of SARS-CoV Urbani: 0.4
  Binding of serum 62 to looped/cyclic peptides of protein M of SARS-CoV Urbani: 0.7
  Binding of serum London to linear peptides of protein M of SARS-CoV Urbani: 0.4
  Binding of serum London to looped/cyclic peptides of protein M of SARS-CoV Urbani: 0.2
  Binding of serum SARS-green to linear peptides of protein M of SARS-CoV Urbani: 0.5
  Binding of serum SARS-green to looped/cyclic peptides of protein M of SARS-CoV Urbani: 0.3
  Binding of serum SARS-yellow to linear peptides of protein M of SARS-CoV Urbani: 0.2
  Binding of serum SARS-yellow to looped/cyclic peptides of protein M of SARS-CoV Urbani: 0.4

## CIPYNSVTDTIVVTE
[1]
  Binding of Control Serum Blood-Bank to Looped peptides: 0.6
  Binding of Control serum Blood-bank to linear peptides: 0.5
  Binding of Control serum LUMC to linear peptides: 0.6
  Binding of Control serum LUMC to looped peptides: 0.5
[2]
  Binding of a rabbit serum to linear peptides: 0.1
  Binding of a rabbit serum to looped peptides: 0.4
[3]
  Binding of serum 1a to linear peptides of protein X1 of SARS-CoV Urbani: 0.7
  Binding of serum 1b to linear peptides of protein X1 of SARS-CoV Urbani: 0.6
  Binding of serum 1b to looped/cyclic peptides of protein X1 of SARS-CoV Urbani: 0.4
  Binding of serum 2 to linear peptides of protein X1 of SARS-CoV Urbani: 0.5
  Binding of serum 2 to looped/cyclic peptides of protein X1 of SARS-CoV Urbani: 0.5
  Binding of serum 6 to linear peptides of protein X1 of SARS-CoV Urbani: 0.5
  Binding of serum 6 to looped/cyclic peptides of protein X1 of SARS-CoV Urbani: 0.2
  Binding of serum 37 to linear peptides of protein X1 of SARS-CoV Urbani: 0.7
  Binding of serum 37 to looped/cyclic peptides of protein X1 of SARS-CoV Urbani: 0.6
  Binding of serum 62 to linear peptides of protein X1 of SARS-CoV Urbani: 0.6
  Binding of serum 62 to looped/cyclic peptides of protein X1 of SARS-CoV Urbani: 0.5
  Binding of serum London to linear peptides of protein X1 of SARS-CoV Urbani: 0.3
  Binding of serum London to looped/cyclic peptides of protein X1 of SARS-CoV Urbani: 0.2
  Binding of serum SARS-green to linear peptides of protein X1 of SARS-CoV Urbani: 0.3
  Binding of serum SARS-green to looped/cyclic peptides of protein X1 of SARS-CoV Urbani: 0.3
  Binding of serum SARS-yellow to linear peptides of protein X1 of SARS-CoV Urbani: 0.5
  Binding of serum SARS-yellow to looped/cyclic peptides of protein X1 of SARS-CoV Urbani: 0.4

## CKHKKVSTNLCTHSF
[1]
  Binding of Control Serum Blood-Bank to Looped peptides: 0.1
  Binding of Control serum Blood-bank to linear peptides: 0.8
  Binding of Control serum LUMC to linear peptides: 1.0
  Binding of Control serum LUMC to looped peptides: 0.4
[2]
  Binding of a rabbit serum to linear peptides: 0.3
  Binding of a rabbit serum to looped peptides: 0.5
[3]
  Binding of serum 1a to looped/cyclic peptides of protein X2 of SARS-CoV Urbani: 0.7
  Binding of serum 1b to looped/cyclic peptides of protein X2 of SARS-CoV Urbani: 0.7
  Binding of serum 2 to looped/cyclic peptides of protein X2 of SARS-CoV Urbani: 0.4
  Binding of serum 6 to looped/cyclic peptides of protein X2 of SARS-CoV Urbani: 0.3
  Binding of serum 37 to looped/cyclic peptides of protein X2 of SARS-CoV Urbani: 0.6
  Binding of serum 62 to looped/cyclic peptides of protein X2 of SARS-CoV Urbani: 0.5
  Binding of serum London to looped/cyclic peptides of protein X2 of SARS-CoV Urbani: 0.3
  Binding of serum SARS-green to looped/cyclic peptides of protein X2 of SARS-CoV Urbani: 0.4
  Binding of serum SARS-yellow to looped/cyclic peptides of protein X2 of SARS-CoV Urbani: 0.9
  Recognition of the peptide by sera of SARS-CoV infected individuals, and form (linear, looped/cyclic) in which it is recognized: recognized in linear form

## CRIIMRCWLCWKCKS
[1]
  Binding of Control Serum Blood-Bank to Looped peptides: 0.7
  Binding of Control serum Blood-bank to linear peptides: 0.4
  Binding of Control serum LUMC to linear peptides: 0.3
  Binding of Control serum LUMC to looped peptides: 0.7
[2]
  Binding of a rabbit serum to linear peptides: 0.1
  Binding of a rabbit serum to looped peptides: 0.7
[3]
  Binding of serum 1a to looped/cyclic peptide (PEPSCAN-ELISA): 0.5
  Binding of serum 1b to looped/cyclic peptide (PEPSCAN-ELISA): 0.4
  Binding of serum 2 to looped/cyclic peptide (PEPSCAN-ELISA): 0.5
  Binding of serum 6 to looped/cyclic peptide (PEPSCAN-ELISA): 0.5
  Binding of serum 37 to looped/cyclic peptide (PEPSCAN-ELISA): 0.6
  Binding of serum 62 to looped/cyclic peptide (PEPSCAN-ELISA): 0.6
  Binding of serum London to looped/cyclic peptide (PEPSCAN-ELISA): 0.4
  Binding of serum SARS-green to looped/cyclic peptide (PEPSCAN-ELISA): 0.2
  Binding of serum SARS-yellow to looped/cyclic peptide (PEPSCAN-ELISA): 0.4
  Recognition of the peptide by sera of SARS-CoV infected individuals, and form (linear, looped/cyclic) in which it is recognized: recognized in linear form

## CWKCKSKNPLLYDAN
[1]
  Binding of Control Serum Blood-Bank to Looped peptides: 0.7
  Binding of Control serum Blood-bank to linear peptides: 0.7
  Binding of Control serum LUMC to linear peptides: 0.8
  Binding of Control serum LUMC to looped peptides: 0.7
[2]
  Binding of a rabbit serum to linear peptides: 0.1
  Binding of a rabbit serum to looped peptides: 0.5
[3]
  Binding of serum 1a to looped/cyclic peptide (PEPSCAN-ELISA): 0.7
  Binding of serum 1b to looped/cyclic peptide (PEPSCAN-ELISA): 0.6
  Binding of serum 2 to looped/cyclic peptide (PEPSCAN-ELISA): 0.5
  Binding of serum 6 to looped/cyclic peptide (PEPSCAN-ELISA): 0.4
  Binding of serum 37 to looped/cyclic peptide (PEPSCAN-ELISA): 0.7
  Binding of serum 62 to looped/cyclic peptide (PEPSCAN-ELISA): 0.6
  Binding of serum London to looped/cyclic peptide (PEPSCAN-ELISA): 0.3
  Binding of serum SARS-green to looped/cyclic peptide (PEPSCAN-ELISA): 0.2
  Binding of serum SARS-yellow to looped/cyclic peptide (PEPSCAN-ELISA): 0.6
  Recognition of the peptide by sera of SARS-CoV infected individuals, and form (linear, looped/cyclic) in which it is recognized: recognized in linear form

## DFQVTIAEILIIIMR
[1]
  Binding of Control Serum Blood-Bank to Looped peptides of the protein X3 of SARS-CoV Urbani: 0.8
  Binding of Control serum Blood-bank to linear peptides of the protein X3 of SARS-CoV Urbani: 0.8
  Binding of Control serum LUMC to linear peptides of the protein X3 of SARS-CoV Urbani: 0.6
  Binding of Control serum LUMC to looped peptides of the protein X3 of SARS-CoV Urbani: 0.7
[2]
  Rabbit serum linear peptides: 0.3
  Rabbit serum looped peptides: 0.3
[3]
  Binding of serum 1a to linear peptides of protein X3 of SARS-CoV Urbani: 0.7
  Binding of serum 1a to looped/cyclic peptides of protein X3 of SARS-CoV Urbani: 0.7
  Binding of serum 1b to linear peptides of protein X3 of SARS-CoV Urbani: 0.5
  Binding of serum 1b to looped/cyclic peptides of protein X3 of SARS-CoV Urbani: 0.4
  Binding of serum 2 to linear peptides of protein X3 of SARS-CoV Urbani: 0.6
  Binding of serum 2 to looped/cyclic peptides of protein X3 of SARS-CoV Urbani: 0.7
  Binding of serum 6 to linear peptides of protein X3 of SARS-CoV Urbani: 0.5
  Binding of serum 6 to looped/cyclic peptides of protein X3 of SARS-CoV Urbani: 0.4
  Binding of serum 37 to linear peptides of protein X3 of SARS-CoV Urbani: 0.6
  Binding of serum 37 to looped/cyclic peptides of protein X3 of SARS-CoV Urbani: 0.7
  Binding of serum 62 to linear peptides of protein X3 of SARS-CoV Urbani: 0.6
  Binding of serum 62 to looped/cyclic peptides of protein X3 of SARS-CoV Urbani: 0.5
  Binding of serum London to linear peptides of protein X3 of SARS-CoV Urbani: 0.6
  Binding of serum London to looped/cyclic peptides of protein X3 of SARS-CoV Urbani: 0.2
  Binding of serum SARS-green to linear peptides of protein X3 of SARS-CoV Urbani: 0.4
  Binding of serum SARS-green to looped/cyclic peptides of protein X3 of SARS-CoV Urbani: 0.2
  Binding of serum SARS-yellow to linear peptides of protein X3 of SARS-CoV Urbani: 0.5
  Binding of serum SARS-yellow to looped/cyclic peptides of protein X3 of SARS-CoV Urbani: 0.7
